Source: ChEMBL document CHEMBL1221226 (Nat Chem Biol, 2009)

Legend:
[1] = target: Glucagon receptor (Homo sapiens, UniProt P47871); test: Agonist activity at GCGR expressed in HEK293 cells assessed as stimulation of cAMP production by luciferase reporter gene assay; type: functional, cell-based
[2] = target: Glucagon-like peptide 1 receptor (Homo sapiens, UniProt P43220); test: Agonist activity at GLP1R expressed in HEK293 cells assessed as stimulation of cAMP production by luciferase reporter gene assay; type: functional, cell-based
Glucagon-like peptide 1 receptor, sequence (P43220 whole entry): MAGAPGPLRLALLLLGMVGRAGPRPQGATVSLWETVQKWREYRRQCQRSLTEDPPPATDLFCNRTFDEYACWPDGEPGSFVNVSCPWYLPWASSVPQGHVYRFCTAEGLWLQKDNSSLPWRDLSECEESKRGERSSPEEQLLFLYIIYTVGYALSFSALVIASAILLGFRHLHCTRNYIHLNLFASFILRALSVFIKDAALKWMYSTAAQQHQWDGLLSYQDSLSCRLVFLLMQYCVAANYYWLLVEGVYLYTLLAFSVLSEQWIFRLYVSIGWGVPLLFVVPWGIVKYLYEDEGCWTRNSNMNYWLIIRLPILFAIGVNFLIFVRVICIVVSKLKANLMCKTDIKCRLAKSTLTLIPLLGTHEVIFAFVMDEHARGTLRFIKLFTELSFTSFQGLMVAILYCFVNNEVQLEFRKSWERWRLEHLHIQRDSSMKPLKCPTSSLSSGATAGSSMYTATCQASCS

Glucagon receptor, sequence (P47871 whole entry): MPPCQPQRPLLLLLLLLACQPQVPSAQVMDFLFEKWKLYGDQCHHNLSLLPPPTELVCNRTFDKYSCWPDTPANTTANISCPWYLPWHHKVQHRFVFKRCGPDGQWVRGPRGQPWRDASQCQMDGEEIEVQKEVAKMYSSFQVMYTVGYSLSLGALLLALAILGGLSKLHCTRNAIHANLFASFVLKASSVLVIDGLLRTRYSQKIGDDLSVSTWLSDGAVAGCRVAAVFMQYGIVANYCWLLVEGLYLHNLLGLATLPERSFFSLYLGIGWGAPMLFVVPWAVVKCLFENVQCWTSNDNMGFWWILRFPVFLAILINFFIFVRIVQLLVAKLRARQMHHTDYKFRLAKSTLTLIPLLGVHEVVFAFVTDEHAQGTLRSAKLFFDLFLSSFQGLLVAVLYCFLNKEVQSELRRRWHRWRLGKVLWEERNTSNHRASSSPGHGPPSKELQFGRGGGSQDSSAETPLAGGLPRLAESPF

Structure (SMILES)	EC50 [1] [nM]	EC50 [2] [nM]
CSCC[C@H](NC(=O)[C@H](CC(C)C)NC(=O)[C@H](Cc1c[nH]c2ccccc12)NC(=O)[C@H](CCC(N)=O)NC(=O)[C@@H](NC(=O)[C@H](Cc1ccccc1)NC(=O)[C@H](CC(=O)O)NC(=O)[C@H](CCCCN)NC(=O)[C@H](C)NC(=O)[C@H](CCCN=C(N)N)NC(=O)[C@H](CCCN=C(N)N)NC(=O)[C@H](CCC(=O)O)NC(=O)[C@H](CC(=O)O)NC(=O)[C@H](CC(C)C)NC(=O)[C@H](Cc1ccc(O)cc1)NC(=O)[C@H](CCCCN)NC(=O)[C@H](CO)NC(=O)[C@H](Cc1ccc(O)cc1)NC(=O)[C@H](CC(=O)O)NC(=O)[C@H](CO)NC(=O)[C@@H](NC(=O)[C@H](Cc1ccccc1)NC(=O)[C@@H](NC(=O)CNC(=O)[C@H](CCC(N)=O)NC(=O)[C@H](CO)N[C@@H](Cc1cnc[nH]1)C(=O)O)[C@@H](C)O)[C@@H](C)O)C(C)C)C(=O)N[C@@H](CC(N)=O)C(=O)N[C@H](C(N)=O)[C@@H](C)O	0.077	0.071
CSCC[C@H](NC(=O)[C@H](CC(C)C)NC(=O)[C@H](Cc1c[nH]c2ccccc12)NC(=O)[C@H](CCC(N)=O)NC(=O)[C@@H](NC(=O)[C@H](Cc1ccccc1)NC(=O)[C@H](CC(=O)O)NC(=O)[C@H](CCCCN)NC(=O)[C@H](C)NC(=O)[C@H](CCCN=C(N)N)NC(=O)[C@H](CCC(N)=O)NC(=O)[C@H](CCC(=O)O)NC(=O)[C@H](CC(=O)O)NC(=O)[C@H](CC(C)C)NC(=O)[C@H](Cc1ccc(O)cc1)NC(=O)[C@H](CCCCN)NC(=O)[C@H](CO)NC(=O)[C@H](Cc1ccc(O)cc1)NC(=O)[C@H](CC(=O)O)NC(=O)[C@H](CO)NC(=O)[C@@H](NC(=O)[C@H](Cc1ccccc1)NC(=O)[C@@H](NC(=O)CNC(=O)[C@H](CCC(N)=O)NC(=O)[C@H](CO)N[C@@H](Cc1cnc[nH]1)C(=O)O)[C@@H](C)O)[C@@H](C)O)C(C)C)C(=O)N[C@@H](CC(N)=O)C(=O)N[C@H](C(N)=O)[C@@H](C)O	0.048	0.075
CSCC[C@H](NC(=O)[C@H](CC(C)C)NC(=O)[C@H](Cc1c[nH]c2ccccc12)NC(=O)[C@H](CCC(N)=O)NC(=O)[C@@H](NC(=O)[C@H](Cc1ccccc1)NC(=O)[C@H](CC(=O)O)NC(=O)[C@H](CCCCN)NC(=O)[C@H](C)NC(=O)[C@H](C)NC(=O)[C@H](CCCNC(=N)N)NC(=O)[C@H](CCC(=O)O)NC(=O)[C@H](CC(=O)O)NC(=O)[C@H](CC(C)C)NC(=O)[C@H](Cc1ccc(O)cc1)NC(=O)[C@H](CCCCN)NC(=O)[C@H](CO)NC(=O)[C@H](Cc1ccc(O)cc1)NC(=O)[C@H](CC(=O)O)NC(=O)[C@H](CO)NC(=O)[C@@H](NC(=O)[C@H](Cc1ccccc1)NC(=O)[C@@H](NC(=O)CNC(=O)[C@H](CCC(N)=O)NC(=O)[C@H](CO)N[C@@H](Cc1cnc[nH]1)C(=O)O)[C@@H](C)O)[C@@H](C)O)C(C)C)C(=O)N[C@@H](CC(N)=O)C(=O)N[C@H](C(N)=O)[C@@H](C)O	0.087	0.028
CSCC[C@H](NC(=O)[C@H](CC(C)C)NC(=O)[C@H](Cc1c[nH]c2ccccc12)NC(=O)[C@H](CCC(N)=O)NC(=O)[C@@H](NC(=O)[C@H](Cc1ccccc1)NC(=O)[C@H](CCC(=O)O)NC(=O)[C@H](CCCCN)NC(=O)[C@H](C)NC(=O)[C@H](CCCNC(=N)N)NC(=O)[C@H](CCCNC(=N)N)NC(=O)[C@H](CCC(=O)O)NC(=O)[C@H](CC(=O)O)NC(=O)[C@H](CC(C)C)NC(=O)[C@H](Cc1ccc(O)cc1)NC(=O)[C@H](CCCCN)NC(=O)[C@H](CO)NC(=O)[C@H](Cc1ccc(O)cc1)NC(=O)[C@H](CC(=O)O)NC(=O)[C@H](CO)NC(=O)[C@@H](NC(=O)[C@H](Cc1ccccc1)NC(=O)[C@@H](NC(=O)CNC(=O)[C@H](CCC(N)=O)NC(=O)[C@H](CO)N[C@@H](Cc1cnc[nH]1)C(=O)O)[C@@H](C)O)[C@@H](C)O)C(C)C)C(=O)N[C@@H](CC(N)=O)C(=O)N[C@H](C(N)=O)[C@@H](C)O	0.068	0.075
CC[C@H](C)[C@H](NC(=O)[C@H](Cc1ccccc1)NC(=O)[C@H](CC(=O)O)NC(=O)[C@H](CCCCN)NC(=O)[C@H](C)NC(=O)[C@H](CCCNC(=N)N)NC(=O)[C@H](CCCNC(=N)N)NC(=O)[C@H](CCC(=O)O)NC(=O)[C@H](CC(=O)O)NC(=O)[C@H](CC(C)C)NC(=O)[C@H](Cc1ccc(O)cc1)NC(=O)[C@H](CCCCN)NC(=O)[C@H](CO)NC(=O)[C@H](Cc1ccc(O)cc1)NC(=O)[C@H](CC(=O)O)NC(=O)[C@H](CO)NC(=O)[C@@H](NC(=O)[C@H](Cc1ccccc1)NC(=O)[C@@H](NC(=O)CNC(=O)[C@H](CCC(N)=O)NC(=O)[C@H](CO)N[C@@H](Cc1cnc[nH]1)C(=O)O)[C@@H](C)O)[C@@H](C)O)C(=O)N[C@@H](CCC(N)=O)C(=O)N[C@@H](Cc1c[nH]c2ccccc12)C(=O)N[C@@H](CC(C)C)C(=O)N[C@@H](CCSC)C(=O)N[C@@H](CC(N)=O)C(=O)N[C@H](C(=O)N[C@H](C(N)=O)[C@@H](C)O)[C@@H](C)O	0.073	0.068
CSCC[C@H](NC(=O)[C@H](CC(C)C)NC(=O)[C@H](Cc1c[nH]c2ccccc12)NC(=O)[C@H](C)NC(=O)[C@@H](NC(=O)[C@H](Cc1ccccc1)NC(=O)[C@H](CC(=O)O)NC(=O)[C@H](CCCCN)NC(=O)[C@H](C)NC(=O)[C@H](CCCN=C(N)N)NC(=O)[C@H](CCCN=C(N)N)NC(=O)[C@H](CCC(=O)O)NC(=O)[C@H](CC(=O)O)NC(=O)[C@H](CC(C)C)NC(=O)[C@H](Cc1ccc(O)cc1)NC(=O)[C@H](CCCCN)NC(=O)[C@H](CO)NC(=O)[C@H](Cc1ccc(O)cc1)NC(=O)[C@H](CC(=O)O)NC(=O)[C@H](CO)NC(=O)[C@@H](NC(=O)[C@H](Cc1ccccc1)NC(=O)[C@@H](NC(=O)CNC(=O)[C@H](CCC(N)=O)NC(=O)[C@H](CO)N[C@@H](Cc1cnc[nH]1)C(=O)O)[C@@H](C)O)[C@@H](C)O)C(C)C)C(=O)N[C@@H](CC(N)=O)C(=O)N[C@H](C(N)=O)[C@@H](C)O	0.08	0.087
CSCC[C@H](NC(=O)[C@H](CC(C)C)NC(=O)[C@H](Cc1c[nH]c2ccccc12)NC(=O)[C@H](CCC(N)=O)NC(=O)[C@@H](NC(=O)[C@H](Cc1ccccc1)NC(=O)[C@H](CC(=O)O)NC(=O)[C@H](CCC(N)=O)NC(=O)[C@H](C)NC(=O)[C@H](CCCNC(=N)N)NC(=O)[C@H](CCCNC(=N)N)NC(=O)[C@H](CCC(=O)O)NC(=O)[C@H](CC(=O)O)NC(=O)[C@H](CC(C)C)NC(=O)[C@H](Cc1ccc(O)cc1)NC(=O)[C@H](CCCCN)NC(=O)[C@H](CO)NC(=O)[C@H](Cc1ccc(O)cc1)NC(=O)[C@H](CC(=O)O)NC(=O)[C@H](CO)NC(=O)[C@@H](NC(=O)[C@H](Cc1ccccc1)NC(=O)[C@@H](NC(=O)CNC(=O)[C@H](CCC(=O)O)NC(=O)[C@H](CO)N[C@@H](Cc1cnc[nH]1)C(=O)O)[C@@H](C)O)[C@@H](C)O)C(C)C)C(=O)N[C@@H](CC(N)=O)C(=O)N[C@H](C(N)=O)[C@@H](C)O	3.7	0.11
CC[C@H](C)[C@H](NC(=O)[C@H](Cc1ccccc1)NC(=O)[C@H](CCC(=O)O)NC(=O)[C@H](CCCCN)NC(=O)[C@H](C)NC(=O)[C@H](C)NC(=O)[C@H](CCC(N)=O)NC(=O)[C@H](CCC(=O)O)NC(=O)[C@H](CC(=O)O)NC(=O)[C@H](CC(C)C)NC(=O)[C@H](Cc1ccc(O)cc1)NC(=O)[C@H](CCCCN)NC(=O)[C@H](CO)NC(=O)[C@H](Cc1ccc(O)cc1)NC(=O)[C@H](CC(=O)O)NC(=O)[C@H](CO)NC(=O)[C@@H](NC(=O)[C@H](Cc1ccccc1)NC(=O)[C@@H](NC(=O)CNC(=O)[C@H](CCC(=O)O)NC(=O)[C@H](CO)N[C@@H](Cc1cnc[nH]1)C(=O)O)[C@@H](C)O)[C@@H](C)O)C(=O)N[C@@H](C)C(=O)N[C@@H](Cc1c[nH]c2ccccc12)C(=O)N[C@@H](CC(C)C)C(=O)N[C@@H](CCSC)C(=O)N[C@@H](CC(N)=O)C(=O)N[C@H](C(=O)O)[C@@H](C)O	2.4	0.028
CC[C@H](C)[C@H](NC(=O)[C@H](Cc1ccccc1)NC(=O)[C@H](CCC(=O)O)NC(=O)[C@H](CCCCN)NC(=O)[C@H](C)NC(=O)[C@H](C)NC(=O)[C@H](CCC(=O)O)NC(=O)[C@H](CCC(=O)O)NC(=O)[C@H](CCC(=O)O)NC(=O)[C@H](CC(C)C)NC(=O)[C@H](Cc1ccc(O)cc1)NC(=O)[C@H](CO)NC(=O)[C@H](CO)NC(=O)[C@@H](NC(=O)[C@H](CC(=O)O)NC(=O)[C@H](CO)NC(=O)[C@@H](NC(=O)[C@H](Cc1ccccc1)NC(=O)[C@@H](NC(=O)CNC(=O)[C@H](CCC(=O)O)NC(=O)[C@H](C)N[C@@H](Cc1cnc[nH]1)C(=O)O)[C@@H](C)O)[C@@H](C)O)C(C)C)C(=O)N[C@@H](C)C(=O)N[C@@H](Cc1c[nH]c2ccccc12)C(=O)N[C@@H](CC(C)C)C(=O)N[C@H](C(=O)N[C@@H](CCCCN)C(=O)NCC(=O)N[C@@H](CCN=C(N)N)C(N)=O)C(C)C	> 1000	0.011
CSCC[C@H](NC(=O)[C@H](CC(C)C)NC(=O)[C@H](Cc1c[nH]c2ccccc12)NC(=O)[C@H](CCC(N)=O)NC(=O)[C@@H](NC(=O)[C@H](Cc1ccccc1)NC(=O)[C@H](CC(=O)O)NC(=O)[C@H](CCCCN)NC(=O)[C@H](C)NC(=O)[C@H](CCCN=C(N)N)NC(=O)[C@H](CCCN=C(N)N)NC(=O)[C@H](CO)NC(=O)[C@H](CC(=O)O)NC(=O)[C@H](CC(C)C)NC(=O)[C@H](Cc1ccc(O)cc1)NC(=O)[C@H](CCCCN)NC(=O)[C@H](CO)NC(=O)[C@H](Cc1ccc(O)cc1)NC(=O)[C@H](CC(=O)O)NC(=O)[C@H](CO)NC(=O)[C@@H](NC(=O)[C@H](Cc1ccccc1)NC(=O)[C@@H](NC(=O)CNC(=O)[C@H](CCC(N)=O)NC(=O)[C@H](CO)N[C@@H](Cc1cnc[nH]1)C(=O)O)[C@@H](C)O)[C@@H](C)O)C(C)C)C(=O)N[C@@H](CC(N)=O)C(=O)N[C@H](C(N)=O)[C@@H](C)O	0.12	0.13
